In PubChem BioAssay AID256 (DTP/NCI, 2004):
Inconclusive results and toxic doses are left out. Rule for the calls: active = survival T/C of 150% or more; inactive = T/C below 125% in these data.

System: CD2F1 mice, L1210 leukemia ip, survival T/C
Experiment: NCI In Vivo Anticancer Drug Screen. Data for tumor model L1210 Leukemia (intraperitoneal) in CD2F1 (CDF1) mice
Conditions: endpoint: mean survival time, higher = longer survival
Method in brief: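 Each value reflects a quotient of treated over vehicle control outcomes in mice with a transplanted tumor.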

[1] = dose: 100.0 mg/kg/injection, schedule: Q01DX009 (ip), vehicle: saline with Tween-80
[2] = dose: 200.0 mg/kg/injection, schedule: Q01DX009 (ip), vehicle: saline with Tween-80
[3] = dose: 400.0 mg/kg/injection, schedule: Q01DX009 (ip), vehicle: saline with Tween-80
[4] = dose: 75.0 mg/kg/injection, schedule: Q01DX001 (ip), vehicle: saline
[5] = dose: 150.0 mg/kg/injection, schedule: Q01DX001 (ip), vehicle: saline
[6] = dose: 300.0 mg/kg/injection, schedule: Q01DX001 (ip), vehicle: saline
[7] = dose: 100.0 mg/kg/injection, schedule: Q04DX003 (ip), vehicle: saline with Tween-80
[8] = dose: 200.0 mg/kg/injection, schedule: Q04DX003 (ip), vehicle: saline with Tween-80
[9] = dose: 400.0 mg/kg/injection, schedule: Q04DX003 (ip), vehicle: saline with Tween-80
[10] = dose: 100.0 mg/kg/injection, schedule: Q01DX001 (ip), vehicle: saline with Tween-80

Measured: T/C

CC(C)(C)CC(C)(C)c1ccc(OCCOc2ccc(NS(=O)(=O)c3ccc(N)c([N+](=O)[O-])c3)cc2)cc1
inactive: dose: 50.0 mg/kg/injection, schedule: Q01DX009 (ip), vehicle: Klucel (hydroxypropylcellulose) (HPC) 101 % of control | dose: 100.0 mg/kg/injection, schedule: Q01DX009 (ip), vehicle: Klucel (hydroxypropylcellulose) (HPC) 101 % of control | dose: 200.0 mg/kg/injection, schedule: Q01DX009 (ip), vehicle: Klucel (hydroxypropylcellulose) (HPC) 98 % of control

COC1OC(CN=[N+]=[N-])C(N=[N+]=[N-])C(OS(C)(=O)=O)C1OS(C)(=O)=O (stereo not drawn)
inactive: [1] 95 % of control | [2] 95 % of control | [3] 90 % of control

Nc1ncnc2c1ccn2C1OC(CO)CC1O (stereo not drawn)
inactive: [4] 103 % of control | [5] 100 % of control | [6] 109 % of control

COc1cccc2c1C(=O)c1c(OC)c(CBr)cc(OC)c1C2=O
inactive: dose: 12.5 mg/kg/injection, schedule: Q01DX005 (ip), vehicle: other 96 % of control | dose: 25.0 mg/kg/injection, schedule: Q01DX005 (ip), vehicle: other 101 % of control | dose: 50.0 mg/kg/injection, schedule: Q01DX005 (ip), vehicle: other 96 % of control | dose: 100.0 mg/kg/injection, schedule: Q01DX005 (ip), vehicle: other 86 % of control

Cn1c(=O)c2c(ncn2CC(=O)NNC(=S)Nc2ccccc2)n(C)c1=O
inactive: dose: 12.5 mg/kg/injection, schedule: Q01DX005 (ip), vehicle: distilled water + Tween-80 121 % of control | dose: 25.0 mg/kg/injection, schedule: Q01DX005 (ip), vehicle: distilled water + Tween-80 121 % of control | dose: 50.0 mg/kg/injection, schedule: Q01DX005 (ip), vehicle: distilled water + Tween-80 93 % of control | dose: 100.0 mg/kg/injection, schedule: Q01DX005 (ip), vehicle: distilled water + Tween-80 106 % of control | dose: 200.0 mg/kg/injection, schedule: Q01DX005 (ip), vehicle: distilled water + Tween-80 93 % of control

C/C(=N/O)c1ccc(C)cc1
inactive: [1] 94 % of control | [7] 105 % of control | [2] 91 % of control | [8] 107 % of control | [3] 93 % of control | [9] 102 % of control

C=CC[n+]1ccccc1Cc1ccccc1
inactive: dose: 25.0 mg/kg/injection, schedule: Q01DX001 (ip), vehicle: saline 98 % of control | dose: 50.0 mg/kg/injection, schedule: Q01DX001 (ip), vehicle: saline 95 % of control

O=C1OC(=O)C2C3CCC(O3)C12 (stereo not drawn)
inactive: dose: 1.56 mg/kg/injection, schedule: Q01DX009 (ip), vehicle: saline 98 % of control | dose: 3.12 mg/kg/injection, schedule: Q01DX009 (ip), vehicle: saline 101 % of control | dose: 5.0 mg/kg/injection, schedule: Q01DX009 (ip), vehicle: saline with Tween-80 103 % of control | dose: 10.0 mg/kg/injection, schedule: Q01DX009 (ip), vehicle: saline with Tween-80 100 % of control | dose: 20.0 mg/kg/injection, schedule: Q01DX009 (ip), vehicle: saline with Tween-80 98 % of control

O=c1ccc2c([nH]1)CCCC2
inactive: dose: 50.0 mg/kg/injection, schedule: Q01DX009 (ip), vehicle: saline with Tween-80 92 % of control | [1] 103 % of control | [2] 103 % of control

CCOC(=O)/C=C\C(=O)O.[Mn]
inactive: dose: 25.0 mg/kg/injection, schedule: Q04DX003 (ip), vehicle: saline 102 % of control | dose: 50.0 mg/kg/injection, schedule: Q04DX003 (ip), vehicle: saline 104 % of control | dose: 100.0 mg/kg/injection, schedule: Q04DX002 (ip), vehicle: saline 98 % of control | dose: 100.0 mg/kg/injection, schedule: Q04DX003 (ip), vehicle: saline 112 % of control | dose: 200.0 mg/kg/injection, schedule: Q01DX001 (ip), vehicle: saline 98 % of control | dose: 200.0 mg/kg/injection, schedule: Q04DX002 (ip), vehicle: saline 97 % of control | dose: 300.0 mg/kg/injection, schedule: Q04DX002 (ip), vehicle: saline 116 % of control

Clc1ccc(C(=C(c2ccc(Cl)cc2)c2ccc(Cl)cc2)c2ccc(Cl)cc2)cc1
inactive: [4] 100 % of control | [5] 95 % of control | [6] 93 % of control

NC(=O)Nc1cc(NC(N)=O)cc(N(CCCl)CCCl)c1
inactive: dose: 2.5 mg/kg/injection, schedule: Q01DX009 (ip), vehicle: Klucel (hydroxypropylcellulose) (HPC) 108 % of control | dose: 5.0 mg/kg/injection, schedule: Q01DX009 (ip), vehicle: Klucel (hydroxypropylcellulose) (HPC) 111 % of control | dose: 10.0 mg/kg/injection, schedule: Q01DX009 (ip), vehicle: Klucel (hydroxypropylcellulose) (HPC) 119 % of control

NC(N)=N/N=C/c1cc(Br)ccc1O
inactive: dose: 37.5 mg/kg/injection, schedule: Q01DX009 (ip), vehicle: saline 105 % of control | dose: 37.5 mg/kg/injection, schedule: Q04DX003 (ip), vehicle: saline 110 % of control | dose: 75.0 mg/kg/injection, schedule: Q04DX003 (ip), vehicle: saline 114 % of control | dose: 150.0 mg/kg/injection, schedule: Q04DX003 (ip), vehicle: saline 108 % of control

C(=Nc1ccccc1)c1ccc(-c2ccccc2)cc1
inactive: [1] 95 % of control | dose: 100.0 mg/kg/injection, schedule: Q04DX003 (ip), vehicle: saline sonified 97 % of control | [2] 98 % of control | dose: 200.0 mg/kg/injection, schedule: Q04DX003 (ip), vehicle: saline sonified 101 % of control | [3] 108 % of control | dose: 400.0 mg/kg/injection, schedule: Q04DX003 (ip), vehicle: saline sonified 94 % of control

O=C1CC2OCCC3=CN4CCC56c7ccccc7N1C5C2C3CC46 (stereo not drawn)
inactive: dose: 1.25 mg/kg/injection, schedule: Q01DX001 (ip), vehicle: other 116 % of control | dose: 2.5 mg/kg/injection, schedule: Q01DX001 (ip), vehicle: other 108 % of control

O=C(O)C1C2OC3C(OC(=O)C31)C2Br (stereo not drawn)
inactive: [1] 96 % of control | [7] 91 % of control | [2] 93 % of control | [8] 89 % of control | [3] 91 % of control | [9] 89 % of control

COC1(c2ccccc2)C(c2ccccc2)=CC(=O)/C1=C\c1ccccc1 (stereo not drawn)
inactive: [7] 98 % of control | [8] 91 % of control | [9] 86 % of control

Cc1ccccc1NC(=O)Oc1cccc(OC(=O)c2ccccc2)c1
inactive: dose: 100.0 mg/kg/injection, schedule: Q04DX002 (ip), vehicle: saline with Tween-80 103 % of control | dose: 200.0 mg/kg/injection, schedule: Q04DX002 (ip), vehicle: saline with Tween-80 103 % of control | dose: 400.0 mg/kg/injection, schedule: Q04DX002 (ip), vehicle: saline with Tween-80 91 % of control

O=C(Nc1ccc(S(=O)(=O)N2CCCCC2)cc1)OC(c1ccccc1)c1ccccc1
inactive: dose: 5.0 mg/kg/injection, schedule: Q01DX001 (ip), vehicle: other 103 % of control | dose: 10.0 mg/kg/injection, schedule: Q01DX001 (ip), vehicle: other 100 % of control | dose: 20.0 mg/kg/injection, schedule: Q01DX001 (ip), vehicle: other 93 % of control | dose: 40.0 mg/kg/injection, schedule: Q01DX001 (ip), vehicle: other 100 % of control | dose: 80.0 mg/kg/injection, schedule: Q01DX001 (ip), vehicle: other 102 % of control

CC(C)CCn1cnc2c(=S)nc(N)[nH]c21
inactive: dose: 50.0 mg/kg/injection, schedule: Q01DX001 (ip), vehicle: saline with Tween-80 118 % of control | [10] 95 % of control

CC(C)=[C-]N(C)C.[C-]#[O+].[C-]#[O+].[C-]#[O+].[C-]#[O+].[C-]#[O+].[Mn]
inactive: dose: 12.5 mg/kg/injection, schedule: Q04DX002 (ip), vehicle: saline with Tween-80 110 % of control | dose: 25.0 mg/kg/injection, schedule: Q04DX002 (ip), vehicle: saline with Tween-80 103 % of control

CCNC(=O)OCc1cn2c(c1COC(=O)NCC)CCC2
inactive: dose: 0.78 mg/kg/injection, schedule: Q04DX003 (ip), vehicle: other 101 % of control | dose: 1.56 mg/kg/injection, schedule: Q04DX003 (ip), vehicle: other 87 % of control | dose: 3.13 mg/kg/injection, schedule: Q04DX003 (ip), vehicle: other 92 % of control | dose: 6.25 mg/kg/injection, schedule: Q04DX003 (ip), vehicle: other 92 % of control | dose: 12.5 mg/kg/injection, schedule: Q04DX003 (ip), vehicle: other 97 % of control

CCC(=O)O[C@H]1CC[C@H]2[C@@H]3[C@@H](C)CC4=CC(=O)CC[C@]4(C)[C@H]3CC[C@]12C
inactive: [10] 91 % of control | dose: 200.0 mg/kg/injection, schedule: Q01DX001 (ip), vehicle: saline with Tween-80 94 % of control | dose: 400.0 mg/kg/injection, schedule: Q01DX001 (ip), vehicle: saline with Tween-80 94 % of control
